The record followed here is patent publication US6664250B2, “Lactam derivatives as antiarrhythmic agents” (Bristol-Myers Squibb Co., priority 1998, dated 2003).

Structures are written as SMILES. Structures can show the parent of a compound that is named as a salt.

As usually defined, the melting point is the temperature, or range, at which the solid turns liquid.

In turn, `COc1ccc2c(c1)CC(C)(CN1CCC(c3ccccc3)CC1)NC2=O` (stereo not shown) [Example 6] showed a melting point of 93 to 95 °C.
The compound `COc1ccc2c(c1)NC(=O)C(CC(C)(C)C)C2` (stereo not shown) [Example 37] registered a melting point of 118 to 119 °C.
`CC(C)Oc1ccc2c(c1)C(=O)NC(CC(C)(C)C)C2` (stereo not shown) [Example 37] gave a melting point of 135 to 136 °C.
Under `CCCOc1ccc2c(c1)C(=O)NC(CC(C)(C)C)C2` (stereo not shown) [Example 31] stands 88 to 90 °C; under `CC(C)Oc1ccc2c(c1)NC(=O)C(CC(C)(C)C)CC2` (stereo not shown) [Example 34], 132 to 134 °C; under `CCOc1ccc2c(c1)C(=O)NC(CC(C)(C)C)C2` (stereo not shown) [Example 30], 129 to 130 °C.
In the case of `CC(C)Oc1ccc2c(c1)C(=O)NC(CC(C)(C)C)CC2` (stereo not shown) [Example 29], the melting point lay in the range of 113 to 114 °C.
With `COc1ccc2c(c1)CCN(CCN1CCC(c3ccccc3)CC1)C2=O` (as salt: hydrochloride) [Example 1, 3,4-Dihydro-6-methoxy-2-[2-(4-phenyl-1-piperidinyl)ethyl]-1(2H)-isoquinolinone, Monohydrochloride], the melting point is 232 to 235 °C.
On to `CC(C)(C)CC1CCc2ccc(OCc3ccccc3)cc2NC1=O` (stereo not shown) [Example 26], for which the melting point is 150 to 151 °C.
Take `CC(C)COc1ccc2c(c1)C(=O)NC(CC(C)(C)C)C2` (stereo not shown) [Example 32]: the melting point was in the range of 142 to 143 °C.
Turning to `CC(C)COc1ccc2c(c1)NC(=O)C(CC(C)(C)C)CC2` (stereo not shown) [Example 33], the melting point lay within 139 to 140 °C.
Compound `CC(C)(C)CC1CCc2ccc(OCc3ccccc3)cc2C(=O)N1` (stereo not shown) [Example 23] had a melting point of 142 to 143 °C.
`CCCOc1ccc2c(c1)NC(=O)C(CC(C)(C)C)C2` (stereo not shown) [Example 36] yielded a melting point of 109 to 110 °C.
As for `CCCOc1ccc2c(c1)NC(=O)C(CC(C)(C)C)CC2` (stereo not shown) [Example 24], the melting point lay in the range of 117 to 119 °C.
As to `CC(C)(C)CC1Cc2ccc(OCc3ccccc3)cc2C(=O)N1` (stereo not shown) [Example 25], the melting point is 139 to 140 °C.
Take `COc1ccc2c(c1)C(=O)NC(CC(C)(C)C)C2` (stereo not shown) [Example 38]: the melting point fell in the range of 113 to 114 °C.
With `CC(C)COc1ccc2c(c1)C(=O)NC(CC(C)(C)C)CC2` (stereo not shown) [Example 27], the melting point is 148 to 149 °C.
`CCOc1ccc2c(c1)C(=O)NC(CC(C)(C)C)CC2` (stereo not shown) [Example 21] displayed a melting point of 159 to 160 °C.
For the compound `OCC1c2ccc(OCc3ccccc3)cc2CCN1CCN1CCC(c2ccccc2)CC1` (stereo not shown) (as salt: hydrochloride), the melting point was 205 to 210 °C (dec.).
For the compound `CCCOc1ccc2c(c1)C(=O)NC(CC(C)(C)C)CC2` (stereo not shown) [Example 22], the melting point lay in the range of 132 to 133 °C.
For the compound `CCOc1ccc2c(c1)NC(=O)C(CC(C)(C)C)CC2` (stereo not shown) [Example 28], the melting point was in the range of 136 to 138 °C.
Compound `COc1ccc2c(c1)CCC(C)(CN1CCC(c3ccccc3)CC1)NC2=O` (stereo not shown) [Example 5, 2,3,4,5-Tetrahydro-7-methoxy-3-methyl-3-[(4-phenyl-1-piperidinyl)methyl]-1H-2-benzazepin-1-one] displayed a melting point of 127 to 128 °C.
